Measured values taken from patent US20230312550A1, “N-(2-(4-CYANOTHIAZOLIDIN-3-YL)-2-OXOETHYL)-QUINOLINE-4-CARBOXAMIDES” (AstraZeneca AB, priority 2020, published 2023).
Values after ≈ are worked out from the molar mass of the structure shown.

Tests used:
[1] = Metabolic stability in rat hepatocytes (rHep); details: n = 1 or geometric mean of n = 2-3
Kinetic solubility = details: kinetic from dmso stock
Procedure: Kinetic solubility was measured as described in Comput Aided Mol Des 2015, 29, 795.

FAP = FAP (Homo sapiens (Human), UniProt Q12884); test: hFAP inhibition assay; assay type: biochemical; details: Ala-Pro-AMC 20 μM, n = 1 or geometric mean n = 2-3
Procedure: 384 low volume black plates (Greiner #784076) were used. 4 μL, 0.48 nM enzyme solution (100 mM Tris HCl, 100 mM NaCl, 0.05% Chaps, pH 7.4) was added to 40 nL compounds (in DMSO) at 10 CR, 3 fold dilution series from 50 μM FAC. Plates were incubated for 15 min at rt in dark. 4 μL, 40 μM substrate solution (100 mM Tris HCl, 100 mM NaCl, 0.05% Chaps, pH 7.4) was added to each well. Plates were centrifuged at 1000 rpm and incubated for 30 min at rt in dark. The plates were read on a PHERAstar® reader with excitation 340 nm and emission 460 nm. Data were analyzed in Genedata Screener®. IC50 values were determined by plotting % inhibition versus log compound concentration and using a one site dose response model.

[2] = molecular target: Prolyl endopeptidase, Prolyl Oligopeptidase (hPREP) (Homo sapiens (Human), UniProt P48147); test: hPrep inhibition assay; assay type: biochemical; details: hPREP 0.6 nM, Z-Gly-Pro-amino-methylcoumarin 50 μM; read-out: PREP IC50
Outline: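 Fluorogenic read-out (340 nm excitation, 460 nm emission) after 20 min at rt, using 50 μM final Z-Gly-Pro-aminomethylcoumarin and 0.6 nM final enzyme, following 15 min compound preincubation. Buffer pH 7.5 with glutathione and Triton X-100. IC50 via one-site model on % inhibition vs log concentration.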

hFAP (M39-A757) = hFAP (M39-A757) (Homo sapiens (Human), UniProt Q12884); test: hFAP binding assay (surface plasmon resonance); details: SPR, 20° C.; for hFAP Binding assay k(off) / hFAP Binding assay k(on): single cycle kinetics; for Kd: n = 1 or geometric mean n = 2-4
[3] = Metabolic stability in human liver microsomes (HLM); details: human
Procedure: Metabolic stability in HLM was measured as described in J Comput Aided Mol Des 2015, 29, 795.

[4] = molecular target: human Fibroblast activation protein alpha (hFAP) (Homo sapiens (Human), UniProt Q12884); test: hFAP inhibition assay (tight binders); assay type: biochemical; details: Ala-Pro-AMC 20 μM, n = 1 or geometric mean n = 2-6; also: hFAP 2.4 pM
Procedure: The plates were read on a PHERAstar® reader with excitation 340 nm and emission 460 nm. Data were analyzed in Genedata Screener®. IC50 values were determined by plotting % inhibition versus log compound concentration and using a one site dose response model.

Caco-2 cell permeability = details: human
Procedure: Caco-2 cell permeability was measured as described in Mol Pharm 2017, 14, 1601.

[5] = Solubility, kinetic solubility, n = 1 or average of n = 2-3
[6] = HLM CLint, n = 1 or average of n = 2-3

Chain of human Fibroblast activation protein alpha (hFAP) (Q12884 38-760): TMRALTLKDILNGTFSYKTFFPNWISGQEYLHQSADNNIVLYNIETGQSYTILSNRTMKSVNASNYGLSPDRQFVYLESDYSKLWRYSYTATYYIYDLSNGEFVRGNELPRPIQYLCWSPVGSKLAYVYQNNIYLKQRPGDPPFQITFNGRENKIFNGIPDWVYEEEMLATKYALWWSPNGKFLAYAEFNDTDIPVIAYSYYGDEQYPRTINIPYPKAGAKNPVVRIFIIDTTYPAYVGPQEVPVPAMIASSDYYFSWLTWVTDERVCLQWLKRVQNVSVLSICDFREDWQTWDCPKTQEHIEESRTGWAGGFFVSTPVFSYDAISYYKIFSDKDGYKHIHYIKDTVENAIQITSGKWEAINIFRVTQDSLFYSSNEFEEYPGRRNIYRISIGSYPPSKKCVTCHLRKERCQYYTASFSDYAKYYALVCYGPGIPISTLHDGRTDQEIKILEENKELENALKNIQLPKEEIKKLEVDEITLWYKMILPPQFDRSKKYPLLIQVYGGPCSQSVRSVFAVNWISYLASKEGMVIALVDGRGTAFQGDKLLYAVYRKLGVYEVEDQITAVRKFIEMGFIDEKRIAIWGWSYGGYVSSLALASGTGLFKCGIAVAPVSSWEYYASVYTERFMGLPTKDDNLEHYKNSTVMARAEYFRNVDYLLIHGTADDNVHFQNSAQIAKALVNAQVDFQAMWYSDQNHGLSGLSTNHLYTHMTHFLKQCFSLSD
Chain of FAP (Q12884 38-760): as above
Chain of Prolyl endopeptidase, Prolyl Oligopeptidase (hPREP) (P48147 whole entry): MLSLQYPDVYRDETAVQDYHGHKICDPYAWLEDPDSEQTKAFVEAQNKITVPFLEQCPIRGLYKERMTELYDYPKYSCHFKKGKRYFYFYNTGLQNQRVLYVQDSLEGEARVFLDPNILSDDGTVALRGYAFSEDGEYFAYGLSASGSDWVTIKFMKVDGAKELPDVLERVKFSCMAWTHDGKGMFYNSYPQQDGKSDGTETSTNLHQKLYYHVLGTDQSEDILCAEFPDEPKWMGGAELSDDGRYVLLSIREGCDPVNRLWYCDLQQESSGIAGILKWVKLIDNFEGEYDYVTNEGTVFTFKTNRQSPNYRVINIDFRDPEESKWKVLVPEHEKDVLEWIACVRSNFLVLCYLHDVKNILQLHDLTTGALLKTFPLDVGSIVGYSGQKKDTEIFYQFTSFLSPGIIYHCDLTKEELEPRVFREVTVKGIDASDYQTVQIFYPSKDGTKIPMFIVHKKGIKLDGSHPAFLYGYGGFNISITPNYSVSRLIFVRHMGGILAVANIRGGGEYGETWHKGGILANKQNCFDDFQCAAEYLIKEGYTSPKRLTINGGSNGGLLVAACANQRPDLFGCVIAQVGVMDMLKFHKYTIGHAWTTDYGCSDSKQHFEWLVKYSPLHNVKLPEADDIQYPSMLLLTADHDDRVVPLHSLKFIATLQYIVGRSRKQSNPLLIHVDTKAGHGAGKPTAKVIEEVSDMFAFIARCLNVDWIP
Chain of hFAP (M39-A757) (Q12884 39-757): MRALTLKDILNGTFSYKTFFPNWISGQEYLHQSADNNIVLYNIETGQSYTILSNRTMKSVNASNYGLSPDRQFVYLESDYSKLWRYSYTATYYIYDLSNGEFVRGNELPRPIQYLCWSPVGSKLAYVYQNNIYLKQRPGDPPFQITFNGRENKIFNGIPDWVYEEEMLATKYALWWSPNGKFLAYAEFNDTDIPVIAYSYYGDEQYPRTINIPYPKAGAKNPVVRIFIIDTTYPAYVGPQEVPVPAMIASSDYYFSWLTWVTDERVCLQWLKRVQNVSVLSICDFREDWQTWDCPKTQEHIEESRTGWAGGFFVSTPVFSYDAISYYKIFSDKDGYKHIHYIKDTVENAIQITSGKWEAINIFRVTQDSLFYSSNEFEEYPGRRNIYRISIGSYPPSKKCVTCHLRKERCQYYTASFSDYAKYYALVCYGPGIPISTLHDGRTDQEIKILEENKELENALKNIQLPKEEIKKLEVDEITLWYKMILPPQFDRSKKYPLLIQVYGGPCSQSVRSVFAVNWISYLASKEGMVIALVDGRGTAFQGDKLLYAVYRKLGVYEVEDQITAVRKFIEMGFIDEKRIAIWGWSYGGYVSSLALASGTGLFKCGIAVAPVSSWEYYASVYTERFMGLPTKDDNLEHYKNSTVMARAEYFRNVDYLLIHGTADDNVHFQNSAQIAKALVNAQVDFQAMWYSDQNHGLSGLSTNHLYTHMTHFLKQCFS

| Compound | rHep CLint [1] [μL/min/1E6] | solubility (Kinetic solubility; [5]) [µM] | IC50 (FAP; hFAP […]) [nM] | IC50 [2] [nM] | hFAP Binding assay k(off) (hFAP (M39-A757)) [s⁻¹] | hFAP Binding assay k(on) (hFAP (M39-A757)) [M⁻¹ s⁻¹] | Kd (hFAP (M39-A757)) [nM] | microsomal CLint [3, 6] [µL/min/mg] | IC50 [4] [nM] | IC50 (FAP; hFAP 0.24 nM) [nM] | Papp A→B (Caco-2 cell permeability) [nm/s] | Papp B→A (Caco-2 cell permeability) [nm/s] | efflux ratio (Caco-2 cell permeability) | solubility (Kinetic solubility) [µM] | Papp (Caco-2 cell permeability) [nm/s] | microsomal CLint [3] [µL/min/mg] |
| --- | --- | --- | --- | --- | --- | --- | --- | --- | --- | --- | --- | --- | --- | --- | --- | --- |
| N#C[C@@H]1CSCN1C(=O)CNC(=O)c1ccnc2ccc(N3CCC[C@H]3C(F)(F)F)cc12 [Example 56, N-(2-((R)-4-Cyanothiazolidin-3-yl)-2-oxoethyl)-6-((S)-2-(trifluoromethyl)-pyrrolidin-1-yl)quinoline-4-carboxamide] | 160 | 5.9 (≈ 2.73 µg/mL) | 0.44 | 220 | 0.00011 | 540000 | 0.14 | > 300 | 0.19 | – | – | – | – | – | – | – |
| N#C[C@@H]1CSCN1C(=O)CNC(=O)c1ccnc2ccc(N3CCC[C@H](F)C3)cc12 (mixture of isomers) [Example 40, N-(2-((R)-4-Cyanothiazolidin-3-yl)-2-oxoethyl)-6-((RS)-3-fluoropiperidin-1-yl)quinoline-4-carboxamide] | – | – | – | 280 | 0.000046 | 1300000 | 0.043 | – | 0.065 | 0.24 | – | – | – | – | – | – |
| N#C[C@@H]1CSCN1C(=O)CNC(=O)c1ccnc2ccc(N3C[C@@H](F)[C@H](F)C3)cc12 [Example 214, N-(2-((R)-4-Cyanothiazolidin-3-yl)-2-oxoethyl)-6-((3R,4R)-3,4-difluoro-pyrrolidin-1-yl)quinoline-4-carboxamide] | 15 | – | 0.2 | 280 | 0.000092 | 2900000 | 0.043 | – | 0.079 | – | – | – | – | – | – | – |
| C[C@@H]1COC[C@H](C)N1c1cc2c(C(=O)NCC(=O)N3CSC[C@H]3C#N)ccnc2cc1Br [Example 100, 7-Bromo-N-(2-((R)-4-cyanothiazolidin-3-yl)-2-oxoethyl)-6-((3S,5R)-3,5-dimethylmorpholino)quinoline-4-carboxamide] | 280 | 36 (≈ 18.7 µg/mL) | 0.5 | 170 | 0.0022 | 3000000 | 0.73 | – | 0.27 | – | – | – | – | – | – | – |
| COC[C@@H]1[C@@H](C)OCCN1c1ccc2nccc(C(=O)NCC(=O)N3CSC[C@H]3C#N)c2c1 [Example 97, N-(2-((R)-4-Cyanothiazolidin-3-yl)-2-oxoethyl)-6-((2R,3R)-3-(methoxymethyl)-2-methylmorpholino)quinoline-4-carboxamide] | 19 | 950 (≈ 446 µg/mL) | – | 890 | 0.000076 | 690000 | 0.11 | 32 | 0.23 | – | 5.2 | 230 | 45 | – | – | – |
| COC[C@@H]1CN(c2ccc3nccc(C(=O)NCC(=O)N4CSC[C@H]4C#N)c3c2)CCO1 [Example 93, N-(2-((R)-4-Cyanothiazolidin-3-yl)-2-oxoethyl)-6-((S)-2-(methoxymethyl)-morpholino)quinoline-4-carboxamide] | 2.6 | 300 (≈ 137 µg/mL) | – | 1900 | 0.000080 | 1800000 | 0.047 | < 3 | 0.091 | – | 3.3 | 170 | 50 | – | – | – |
| N#C[C@@H]1CSCN1C(=O)CNC(=O)c1ccnc2ccc(N3CC4CCC(C3)O4)cc12 [Example 79, 6-(8-Oxa-3-azabicyclo[3.2.1]octan-3-yl)-N-(2-((R)-4-cyanothiazolidin-3-yl)-2-oxoethyl)quinoline-4-carboxamide] | 6.2 | 610 (≈ 267 µg/mL) | – | 630 | 0.00012 | 16000000 | 0.018 | 21 | 0.043 | – | 11 | 330 | 29 | – | – | – |
| C[C@@H]1CN(c2ccc3nccc(C(=O)NCC(=O)N4CSC[C@H]4C#N)c3c2)C[C@H](C)[C@@H]1O [Example 7, N-(2-((R)-4-Cyanothiazolidin-3-yl)-2-oxoethyl)-6-((3S,4S,5R)-4-hydroxy-3,5-dimethylpiperidin-1-yl)quinoline-4-carboxamide] | 2.6 | > 1000 | – | 510 | 0.000075 | 740000 | 0.1 | 31 | 0.16 | – | 3.4 | 200 | 59 | – | – | – |
| N#C[C@@H]1CSCN1C(=O)CNC(=O)c1ccnc2ccc(N3CCC4(CC3)COC4)cc12 [Example 229, (R)—N-(2-(4-cyanothiazolidin-3-yl)-2-oxoethyl)-6-(2-oxa-7-azaspiro[3.5]nonan-7-yl)quinoline-4-carboxamide] | 15 | – | – | 320 | 0.000026 | 2400000 | 0.01 | – | 0.091 | – | 220 | 320 | – | > 1000 | 7 | < 3 |
| N#C[C@@H]1CSCN1C(=O)CNC(=O)c1ccnc2ccc(N3CCCCC3=O)cc12 [Example 14, (R)—N-(2-(4-Cyanothiazolidin-3-yl)-2-oxoethyl)-6-(2-oxopiperidin-1-yl)-quinoline-4-carboxamide] | <1 | 830 (≈ 352 µg/mL) | – | 1200 | 0.000064 | 1300000 | 0.05 | < 3 | 0.08 | – | 1.5 | 24 | 16 | – | – | – |
| CO[C@H]1CCN(c2ccc3nccc(C(=O)NCC(=O)N4CSC[C@H]4C#N)c3c2)C1 [Example 207, N-(2-((R)-4-Cyanothiazolidin-3-yl)-2-oxoethyl)-6-((S)-3-methoxy-pyrrolidin-1-yl)quinoline-4-carboxamide] | 1.4 | 280 (≈ 119 µg/mL) | – | 430 | 0.000053 | 4600000 | 0.011 | < 3 | 0.17 | – | 23 | 300 | 13 | – | – | – |
